# Source: ChEMBL document CHEMBL3585345 (ACS Med Chem Lett, 2015)
# Active and inactive are the calls of the source. The calls are words filed in the database; no cut-off is given here.
# What was measured:
# [1] = AUC (0 to 8 hrs) in nude mouse brain at 30 mg/kg, po; assay type: ADME, organism-based; parameters: dose 30 mg/kg, time < 8 hr, route oral
# [2] = Cmax in nude mouse brain at 30 mg/kg, po; assay type: ADME, organism-based; parameters: dose 30 mg/kg, route oral
# [3] = in vivo; details: nude, mouse, brain/plasma, po, 30 mg/kg
# [4] = biological target: T1, Aurora kinase A (Mus musculus, UniProt P97477); assay: Inhibition of recombinant mouse aurora kinase A expressed in insect Sf9 cells using biotin-GLRRASLG as substrate in presence of [gamma-33P]ATP
# T1 sequence (P97477 whole entry): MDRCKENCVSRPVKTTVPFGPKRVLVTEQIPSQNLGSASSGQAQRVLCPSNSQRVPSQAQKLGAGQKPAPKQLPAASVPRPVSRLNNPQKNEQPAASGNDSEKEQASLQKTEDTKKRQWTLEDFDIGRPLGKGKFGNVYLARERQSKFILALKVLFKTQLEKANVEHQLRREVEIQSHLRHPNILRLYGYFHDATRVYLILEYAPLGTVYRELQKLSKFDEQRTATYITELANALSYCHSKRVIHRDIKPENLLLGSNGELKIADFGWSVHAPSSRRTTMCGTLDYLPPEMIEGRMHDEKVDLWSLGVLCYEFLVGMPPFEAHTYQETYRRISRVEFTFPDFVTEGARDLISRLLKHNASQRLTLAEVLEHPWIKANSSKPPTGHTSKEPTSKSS
# [5] = biological target: Aurora kinase B (Homo sapiens, UniProt Q96GD4); assay: Inhibition of aurora kinase B in human HCT116 cells assessed as inhibition of histone H3 phosphorylation by immunofluorescence analysis; assay type: cell-based, HCT-116
# Sequence of Aurora kinase B (Q96GD4 whole entry): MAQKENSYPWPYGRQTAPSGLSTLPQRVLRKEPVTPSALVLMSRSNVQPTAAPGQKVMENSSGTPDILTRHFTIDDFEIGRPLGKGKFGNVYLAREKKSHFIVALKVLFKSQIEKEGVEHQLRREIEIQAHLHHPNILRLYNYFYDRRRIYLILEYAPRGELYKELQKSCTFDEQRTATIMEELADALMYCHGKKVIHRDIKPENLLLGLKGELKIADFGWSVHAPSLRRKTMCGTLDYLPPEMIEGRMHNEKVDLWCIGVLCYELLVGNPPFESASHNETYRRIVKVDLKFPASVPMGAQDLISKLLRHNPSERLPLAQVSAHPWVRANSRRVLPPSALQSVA
# [6] = tested on: HCT-116; assay: Cytotoxicity against human HCT116 cells assessed as inhibition of cell proliferation by BrdU incorporation assay; assay type: functional
# [7] = biological target: T2, Aurora kinase A (Homo sapiens, UniProt O14965); assay: Inhibition of aurora kinase A autophosphorylation at T288 in human HCT116 cells by immunofluorescence analysis; assay type: cell-based, HCT-116
# T2 sequence (O14965 whole entry): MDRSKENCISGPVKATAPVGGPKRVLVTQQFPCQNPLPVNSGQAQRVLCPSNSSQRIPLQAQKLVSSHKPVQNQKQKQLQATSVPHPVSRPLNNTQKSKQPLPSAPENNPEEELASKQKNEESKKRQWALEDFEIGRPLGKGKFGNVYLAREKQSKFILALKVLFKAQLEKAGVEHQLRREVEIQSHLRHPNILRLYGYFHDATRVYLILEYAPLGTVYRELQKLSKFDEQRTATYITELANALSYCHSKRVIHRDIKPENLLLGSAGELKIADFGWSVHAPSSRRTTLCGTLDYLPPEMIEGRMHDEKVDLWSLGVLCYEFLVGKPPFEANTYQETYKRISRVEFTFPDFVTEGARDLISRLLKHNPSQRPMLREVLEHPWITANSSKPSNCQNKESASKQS
# [8] = tested on: Caco-2; assay: Permeability across apical to basolateral side in human Caco2 cells; assay type: ADME, cell-based
# [9] = tested on: Caco-2; assay: Permeability across basolateral to apical side in human Caco2 cells; assay type: ADME, cell-based
# [10] = biological target: T1, Aurora kinase A; assay: Competitive inhibition of recombinant mouse aurora kinase A expressed in insect Sf9 cells in presence of ATP
# [11] = biological target: T3, Gamma-aminobutyric acid receptor subunit alpha-1 (Homo sapiens, UniProt P14867); assay: Binding affinity to GABAA alpha-1 benzodiazepine binding site (unknown origin)
# T3 sequence (P14867 whole entry): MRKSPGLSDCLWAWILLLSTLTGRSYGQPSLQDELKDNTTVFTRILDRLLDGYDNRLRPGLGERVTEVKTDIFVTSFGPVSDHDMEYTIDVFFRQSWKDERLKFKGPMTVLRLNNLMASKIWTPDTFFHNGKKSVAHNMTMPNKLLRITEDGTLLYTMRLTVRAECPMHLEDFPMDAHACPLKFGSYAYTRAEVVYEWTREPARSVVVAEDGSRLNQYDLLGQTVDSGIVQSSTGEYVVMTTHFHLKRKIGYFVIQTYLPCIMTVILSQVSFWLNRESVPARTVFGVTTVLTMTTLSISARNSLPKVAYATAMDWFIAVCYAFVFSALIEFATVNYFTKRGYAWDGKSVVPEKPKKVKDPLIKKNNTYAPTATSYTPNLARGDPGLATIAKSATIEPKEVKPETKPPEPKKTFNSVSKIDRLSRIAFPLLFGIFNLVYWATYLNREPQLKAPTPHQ
# [12] = Substrate activity at P-gp (unknown origin) transfected in MDCK cells; assay type: ADME, cell-based; details: human
# [13] = Inhibition of CYP450 (unknown origin) up to 100 uM; assay type: ADME; details: human
# [14] = Clearance in Sprague-Dawley rat at 1 mg/kg, iv; assay type: ADME, organism-based; details: in vivo
# [15] = Volume of distribution at steady state in Sprague-Dawley rat at 1 mg/kg, iv; assay type: ADME, organism-based; details: in vivo, read-out: Vdss
# [16] = Terminal half life in Sprague-Dawley rat at 1 mg/kg, iv; assay type: ADME, organism-based; details: in vivo, read-out: beta t1/2 (converted)
# [17] = (§1) Oral bioavailability in Sprague-Dawley rat at 10 mg/kg; assay type: ADME, organism-based; details: Sprague-Dawley, in vivo
# [18] = tested on: Rattus norvegicus; assay: Toxicity in Sprague-Dawley rat assessed as myelosuppression at maximum tolerated dose, po administered for 7 days; assay type: organism-based; details: in vivo, 168 h
# [19] = tested on: Rattus norvegicus; assay: Toxicity in Sprague-Dawley rat assessed as mucositis at maximum tolerated dose, po administered for 7 days; assay type: organism-based; details: in vivo, 168 h
# [20] = tested on: Rattus norvegicus; assay: Toxicity in Sprague-Dawley rat assessed as reversible effect on central nervous system at maximum tolerated dose, po administered for 7 days; assay type: organism-based; details: in vivo, 168 h
# [21] = Protein binding in plasma (unknown origin); assay type: ADME, cell-free; details: read-out: PPB
# [22] = tested on: Rattus norvegicus; assay: AUC (0 to 24 hrs) in po dosed Sprague-Dawley rat; assay type: ADME, organism-based; parameters: time < 24 hr, route oral; details: in vivo
# [23] = Cmax in po dosed Sprague-Dawley rat; assay type: ADME, organism-based; parameters: route oral; details: in vivo
# [24] = tested on: Calu-6; assay: Antitumor activity against human Calu6 cells xenografted in mouse assessed as tumor growth inhibition at 30 mg/kg, po bid administered for 21 days; assay type: functional, organism-based
# [25] = Aqueous solubility of the compound; assay type: physicochemical; details: buffer
# [26] = tested on: Rattus norvegicus; assay: as §1; assay type: ADME, organism-based; details: in vivo
# [27] = tested on: Rattus norvegicus; assay: In vivo binding affinity to GABAA receptor in po dosed Sprague-Dawley rat; assay type: ADME, organism-based
# [28] = tested on: Rattus norvegicus; assay: Toxicity in Sprague-Dawley rat assessed as GABAA related effect administered as iv infusion measured within 5 mins; assay type: organism-based; details: in vivo
# [29] = tested on: Rattus norvegicus; assay: Toxicity in Sprague-Dawley rat assessed as GABAA related effect at maximum tolerated dose, po administered for 7 days; assay type: organism-based; details: in vivo, 168 h
# [30] = Inhibition of human CYP450; assay type: ADME
# [31] = tested on: Plasma; assay: AUC (0 to 8 hrs) in nude mouse plasma at 30 mg/kg, po; assay type: ADME, organism-based; parameters: dose 30 mg/kg, time < 8 hr, route oral; details: in vivo
# [32] = tested on: Calu-6; assay: Antitumor activity against human Calu6 cells xenografted in mouse assessed as tumor growth inhibition at 20 mg/kg, po bid administered for 21 days; assay type: functional, organism-based
structure (smiles),measurement,setting,value
COc1cc(Nc2ncc3c(n2)-c2ccc(Cl)cc2C(c2c(F)cccc2OC)=NC3)ccc1C(=O)[O-].[Na+],AUC(0-t) at 8 h,[1],2000 ng·h/mL
same,Cmax,[2],420 ng/mL
same,Kp,[3],0.03
O=C(O)c1ccc(Nc2ncc3c(n2)-c2ccc(Cl)cc2C(c2ccccc2F)=NC3)cc1,IC50,[4],33 nM
same,IC50,[5],> 10000 nM
same,GI50,[6],950 nM
O=C([O-])c1ccc(Nc2ncc3c(n2)-c2ccc(Cl)cc2C(c2c(F)cccc2F)=NC3)cc1.[Na+],AUC(0-t) at 8 h,[1],12500 ng·h/mL
same,Cmax,[2],2600 ng/mL
Nc1ncc2c(n1)-c1ccc(Cl)cc1C(c1ccccc1F)=NC2,IC50,[4],1700 nM
same,IC50,[7],6000 nM
same,IC50,[5],> 10000 nM
same,GI50,[6],11000 nM
O=C(O)c1ccc(Nc2ncc3c(n2)-c2ccc(Cl)cc2C(c2c(F)cccc2F)=NC3)cc1 [MLN-8054],IC50,[4],31 nM
same,permeability,[8],54 ×10⁻⁶ cm/s
same,permeability,[9],79 ×10⁻⁶ cm/s
same,Ki,[10],7 nM
same,IC50,[11],330 nM
same,Activity,[12],Not Active
same,inhibition (INH),[13],Not Active
same,clearance,[14],20.3 mL/min/kg
same,Vd,[15],1.48 L/kg
same,half-life,[16],4.2 h
same,bioavailability,[17],100%
same,Activity,[18],Toxic
same,Activity,[19],Toxic
same,Activity,[20],Toxic
same,fraction unbound,[21],< 0.02
same,AUC,[22],13800 ng·h/mL
same,Cmax,[23],5200 ng/mL
O=C(O)c1ccc(Nc2ncc3c(n2)-c2ccc(Cl)cc2C(c2c(F)cccc2F)=NC3)cc1,TGI,[24],Active
O=C([O-])c1ccc(Nc2ncc3c(n2)-c2ccc(Cl)cc2C(c2ccccc2F)=NC3)cc1.[Na+],permeability,[8],58 ×10⁻⁶ cm/s
same,permeability,[9],64 ×10⁻⁶ cm/s
same,solubility,[25],> 10000 µg/mL
COc1cc(Nc2ncc3c(n2)-c2ccc(Cl)cc2C(c2c(F)cccc2OC)=NC3)ccc1C(=O)O [ALISERTIB],IC50,[4],1 nM
same,GI50,[6],30 nM
same,permeability,[8],62 ×10⁻⁶ cm/s
same,permeability,[9],47 ×10⁻⁶ cm/s
same,Ki,[10],0.3 nM
same,IC50,[11],490 nM
same,Activity,[12],Not Active
same,Vd,[15],2.21 L/kg
same,half-life,[16],7 h
same,F,[26],124%
same,Activity,[18],Toxic
same,Activity,[19],Toxic
same,Activity,[27],Non-toxic
same,fraction unbound,[21],< 0.03
same,AUC,[22],201000 ng·h/mL
same,Cmax,[23],48000 ng/mL
same,Activity,[28],Toxic
same,Activity,[29],Non-toxic
same,IC50,[30],> 100000 nM
COc1cccc(F)c1C1=NCc2cnc(Nc3ccc(C(=O)[O-])cc3)nc2-c2ccc(Cl)cc21.[Na+],AUC,[31],54300 ng·h/mL
same,AUC(0-t) at 8 h,[1],3500 ng·h/mL
same,Cmax,[2],930 ng/mL
same,Kp,[3],0.06
COc1cccc(F)c1C1=NCc2cnc(Nc3ccc(C(=O)O)cc3)nc2-c2ccc(Cl)cc21,IC50,[4],10 nM
same,IC50,[5],2500 nM
same,GI50,[6],130 nM
same,IC50,[11],150 nM
same,Activity,[27],Non-toxic
same,AUC,[22],244000 ng·h/mL
same,Cmax,[23],46000 ng/mL
same,Activity,[29],Non-toxic
COc1cc(Nc2ncc3c(n2)-c2ccc(Cl)cc2C(c2c(F)cccc2OC)=NC3)ccc1C(=O)O,TGI,[32],Active
